From patent publication US9364479B2, “Use of a receptor-type kinase modulator for treating polycystic kidney disease” (SYMPHONY EVOLUTION, INC., priority 2010, dated 2016)

Columns and labels:
[1] = human, in vivo
Protocol: Food effect on bioavailability was analyzed.

[2] = test system: Glycine, Strychnine-sensitive; experiment: NovaScreen assay; type: binding
[3] = target: T1, Norepinephrine Transporter (Homo sapiens, UniProt P23975); experiment: NovaScreen assay; type: binding; conditions: read-out: Inhibition, 10 μM XL-647
T1 construct: NovaScreen

[4] = target: T2, Thyrotropin Releasing Hormone, TRH (Homo sapiens, UniProt P34981); experiment: NovaScreen assay; type: binding; conditions: read-out: Inhibition, 10 μM XL-647
T2 construct: NovaScreen

Thromboxane A2 (Human) = target: T3, Thromboxane A2 (Human) (Homo sapiens, UniProt P21731); experiment: NovaScreen assay; type: binding; conditions: read-out: Inhibition, 10 μM XL-647
T3 construct: NovaScreen

p-Y-EGFR = p-Y-EGFR (Homo sapiens, UniProt P00533); experiment: In vivo receptor phosphorylation, A431 xenografts; set-up: species or system mouse
ErbB2 [5] = target: T4, ErbB2 (Homo sapiens, UniProt P04626); experiment: AlphaScreen tyrosine kinase assay; type: biochemical; set-up: residues Q679-V1255 of human ErbB2, Proqinase; purchased Proqinase; conditions: ATP at Km
Target sequence in this assay (P04626 679-1255): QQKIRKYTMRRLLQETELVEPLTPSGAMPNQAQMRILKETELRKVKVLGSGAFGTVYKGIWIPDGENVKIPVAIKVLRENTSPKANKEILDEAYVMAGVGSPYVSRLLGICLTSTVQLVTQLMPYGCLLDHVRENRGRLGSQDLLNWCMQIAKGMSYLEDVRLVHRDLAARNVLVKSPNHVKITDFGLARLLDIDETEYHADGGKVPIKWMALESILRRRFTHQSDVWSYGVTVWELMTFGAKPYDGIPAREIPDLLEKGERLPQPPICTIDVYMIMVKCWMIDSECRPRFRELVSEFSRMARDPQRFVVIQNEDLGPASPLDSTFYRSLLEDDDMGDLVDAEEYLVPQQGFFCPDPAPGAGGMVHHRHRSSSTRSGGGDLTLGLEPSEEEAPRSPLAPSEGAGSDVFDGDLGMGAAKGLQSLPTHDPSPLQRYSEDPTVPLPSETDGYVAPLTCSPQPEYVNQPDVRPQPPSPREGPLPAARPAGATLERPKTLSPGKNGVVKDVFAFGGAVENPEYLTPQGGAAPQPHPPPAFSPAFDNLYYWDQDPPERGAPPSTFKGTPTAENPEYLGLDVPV
From the text: Dose-response experiments were done using 10 different inhibitor concentrations in 384-well microtiter plates. The ATP concentration used for each assay was equivalent to the Km for each kinase.
An AlphaScreen tyrosine kinase assay was used to measure ErbB2 and Flt-4 activity. Donor beads coated with streptavidin and acceptor beads coated with PY100 anti-phosphotyrosine antibody (Perkin-Elmer) were used. Biotinylated poly(Glu,Tyr) 4:1 was used as the substrate. Substrate phosphorylation was measured by luminescence following donor-acceptor bead addition followed by complex formation. Test compound, 3 μmol/L ATP, 3 nmol/L biotinylated poly(Glu,Tyr) 4:1, and 1 nmol/L ErbB2 (residues Q679-V1255 of human ErbB2, Proqinase) or Flt-4 (residues D725-R1298 of human Flt-4, Proqinase) were combined in a volume of 20 μL Assay Buffer (20 mM TrisHCl, pH 7.5, 10 mM MgCl2, 3 mM MnCl2, 1 mM DTT, 0.01% Triton) in a 384-well white, medium-binding microtiter plate (Greiner). Reaction mixtures were incubated for 1 h at room temperature. Reactions were quenched by addition of 10 μL of 15 to 30 μg/mL AlphaScreen bead suspension containing 75 mmol/L HEPES (pH 7.4), 300 mmol/L NaCl, 120 mmol/L EDTA, 0.3% bovine serum albumin, and 0.03% Tween 20. After 2 to 16 h of incubation at room temperature, plates were read using an AlphaQuest reader (Perkin-Elmer).

in vivo = experiment: in vivo; set-up: species or system mice, rats, dogs, and monkeys
Protocol: The nonclinical Pharmacokinetics (PK) of XL-647 was studied in mice, rats, dogs, and monkeys. Animals were dosed either once or daily over several days, as described in Table 21 and 22 below. A summary of results can also be found in Tables 21 and 22 below. […] Mean tmax values were approximately 4 to 8 hours, and plasma terminal half-lives ranged from 9.41 to 20.9 hours.

PDGFRβ = PDGFRβ (Homo sapiens, UniProt P09619); experiment: Cellular autophosphorylation assay; type: cell-based
[6] = target: T5, EGFR phosphorylation (H1975 cells) (Homo sapiens, UniProt P00533, L858R/T790M); experiment: Immunoblot analysis of H1975 cell lysates; type: cell-based
T5 construct: host or cells: H1975 (cultured cells; s.c. xenografts in mice)
Protocol: For the H1975 immunoblot studies, 3×10^5 cells were plated in each well (12-well plate) and incubated for 16 h in complete RPMI 1640, rinsed with fetal bovine serum-free RPMI 1640, and incubated with serial dilutions of test compounds in fetal bovine serum-free medium for 2 h followed by stimulation with 100 ng/mL human recombinant EGF for 10 min. Whole-cell protein lysates were prepared as described above and centrifuged for 10 min at 13,000×g at 4° C. to remove any insoluble material. Total protein was determined using bicinchoninic acid reagent and an equal amount of protein was combined with LDS loading buffer (Invitrogen) according to the manufacturer's instructions. Proteins were separated by gel electrophoresis on 4% to 15% polyacrylamide gels, transferred to nitrocellulose membranes, and detected by immunoblotting. Antibody:antigen complexes were detected using chemiluminescence. The following antibodies from Cell Signaling Technology were used at a 1:1,000 dilution: anti-EGFR, anti-pEGFR^Tyr1068, anti-AKT, anti-pAKT^Ser473, anti-ERK, and anti-pERK^Thr202/Tyr204. The anti-β-actin primary antibody (Accurate Chemical and Scientific) was used at 1:10,000 and the horseradish peroxidase-coupled secondary antibodies were purchased from Jackson ImmunoResearch and used at 1:5,000.

[7] = test system: Muscarinic, Non-selective, Central; experiment: NovaScreen assay; type: binding
ErbB2 [8] = target: T4, ErbB2; experiment: ErbB2 autophosphorylation ELISA, BT474 cells; type: cell-based; conditions: read-out: Cellular IC50, autophosphorylation
Target sequence in this assay (P04626 23-1255): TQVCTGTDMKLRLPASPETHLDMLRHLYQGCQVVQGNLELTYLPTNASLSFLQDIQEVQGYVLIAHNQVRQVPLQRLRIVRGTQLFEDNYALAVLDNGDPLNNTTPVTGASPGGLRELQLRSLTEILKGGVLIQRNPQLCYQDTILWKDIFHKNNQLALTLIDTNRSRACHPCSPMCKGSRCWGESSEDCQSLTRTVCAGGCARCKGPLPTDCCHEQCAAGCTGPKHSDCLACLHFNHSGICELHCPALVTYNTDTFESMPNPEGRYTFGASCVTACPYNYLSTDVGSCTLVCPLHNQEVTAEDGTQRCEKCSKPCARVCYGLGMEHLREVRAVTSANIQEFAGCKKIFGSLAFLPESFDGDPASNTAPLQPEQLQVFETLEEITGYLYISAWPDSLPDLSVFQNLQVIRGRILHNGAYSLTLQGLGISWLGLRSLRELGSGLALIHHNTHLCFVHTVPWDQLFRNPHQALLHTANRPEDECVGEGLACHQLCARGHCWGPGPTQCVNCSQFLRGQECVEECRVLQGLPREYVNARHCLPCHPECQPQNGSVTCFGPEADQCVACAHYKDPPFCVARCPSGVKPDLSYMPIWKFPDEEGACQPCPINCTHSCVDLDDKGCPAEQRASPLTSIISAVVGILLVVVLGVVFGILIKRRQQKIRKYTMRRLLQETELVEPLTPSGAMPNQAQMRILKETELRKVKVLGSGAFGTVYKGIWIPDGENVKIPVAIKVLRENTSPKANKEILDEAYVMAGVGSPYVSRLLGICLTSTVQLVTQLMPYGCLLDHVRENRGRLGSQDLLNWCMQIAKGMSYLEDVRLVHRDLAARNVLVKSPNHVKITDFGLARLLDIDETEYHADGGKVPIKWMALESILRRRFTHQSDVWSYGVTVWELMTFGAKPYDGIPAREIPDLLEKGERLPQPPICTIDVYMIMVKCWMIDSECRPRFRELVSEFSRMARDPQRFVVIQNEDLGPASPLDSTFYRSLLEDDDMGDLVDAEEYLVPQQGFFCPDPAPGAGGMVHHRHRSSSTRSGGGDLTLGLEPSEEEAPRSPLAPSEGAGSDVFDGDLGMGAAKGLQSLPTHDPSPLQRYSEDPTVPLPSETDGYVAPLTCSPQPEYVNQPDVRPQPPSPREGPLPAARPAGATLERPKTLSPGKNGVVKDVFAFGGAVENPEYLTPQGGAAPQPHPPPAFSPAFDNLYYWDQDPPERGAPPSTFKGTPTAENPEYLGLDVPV
Protocol: The ErbB2 autophosphorylation ELISA utilized BT474 (ATCC) cells. Cells were seeded at 3×10^4 cells/well into 96-well microtiter plates (Costar 3904), in 1:1(DMEM:F12K) (Cellgro) containing 10% FBS (Heat-Inactivated, Hyclone), 1% penicillin-streptomycin (Cellgro), 1% NEAA solution (Cellgro), and 2% L-Glutamine (Cellgro). The cells were then incubated at 37° C., 5% CO2 for 40 hr. […] Following treatment, media was removed, the cell monolayer was washed with cold PBS and immediately lysed with cold lysis buffer. Lysates were centrifuged and transferred into blocked (1% BSA) 96-well high-binding plates (Costar 3925) coated with rabbit polyclonal anti-ErbB2 (1.3 μg/ml, Cell Signaling Technology). Plates were then incubated with HRP-conjugated, anti-phosphotyrosine cocktail (1:10,000, Zymed Laboratories, Inc), followed by the addition of a luminol-based substrate solution. Plates were read with a Victor spectrophotometer (Wallac). IC50 values were determined based on total ErbB2 tyrosine phosphorylation with compound treatment versus total ErbB2 tyrosine phosphorylation with no compound treatment.

Vasopressin 1 = target: T6, Vasopressin 1 (Homo sapiens, UniProt P37288); experiment: NovaScreen assay; type: binding; conditions: read-out: Inhibition, 10 μM XL-647
T6 construct: NovaScreen

[9] = test system: HN5 human tumor xenograft; experiment: HN5 xenograft, tumor growth; type: in vivo; conditions: Mus musculus; qd × 14
Protocol: The response of tumors to treatment was determined by comparing the mean tumor weight of the treatment group with the appropriate control group. Percentage inhibition of tumor growth was determined with the following formula: Percentage inhibition=100×[1−(Xf−Xo)/(Yf−Yo)], where Xf and Yf are the mean tumor weights of the treatment and control groups, respectively, on day f, and Xo and Yo are the mean tumor weights of treatment and control groups respectively, on day zero (staged tumor weights after grouping)

EphA2 = target: T7, EphA2 (Homo sapiens, UniProt P29317); experiment: Chemiluminescent kinase assay; type: biochemical
T7 construct: Human, N598-; mM MgCl2, 3 mM MnCl2,; R890, N-His6; His6 (N)
Protocol: A Luciferase-coupled chemiluminescence assay was used to measure EGFR and KDR (VEGFR2) activity. Kinase activity was measured as the percentage of ATP consumed following the kinase reaction using luciferase-luciferin-coupled chemiluminescence. Reactions were conducted in 384-well white, medium-binding microtiter plates (Greiner). […] The reaction mixture was incubated at room temperature for 4 h. Following the kinase reaction, a 20 μL aliquot of Kinase Glo (Promega) was added and luminescence signal was measured using a Victor2 plate reader (Perkin-Elmer). Total ATP consumption was limited to 50%.

in vitro = in vitro ADME, mouse and human; conditions: rat, mouse, human, plasma

T3 sequence (P21731 whole entry): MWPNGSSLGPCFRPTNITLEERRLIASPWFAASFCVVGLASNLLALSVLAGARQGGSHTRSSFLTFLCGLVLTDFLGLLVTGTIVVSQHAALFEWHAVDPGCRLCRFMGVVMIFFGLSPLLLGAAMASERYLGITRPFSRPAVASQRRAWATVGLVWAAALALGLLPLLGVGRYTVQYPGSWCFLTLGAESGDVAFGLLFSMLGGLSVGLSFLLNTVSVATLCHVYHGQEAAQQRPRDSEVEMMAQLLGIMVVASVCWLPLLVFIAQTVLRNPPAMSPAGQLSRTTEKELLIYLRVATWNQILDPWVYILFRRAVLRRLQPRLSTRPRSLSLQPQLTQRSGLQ
T1 sequence (P23975 whole entry, species assumed): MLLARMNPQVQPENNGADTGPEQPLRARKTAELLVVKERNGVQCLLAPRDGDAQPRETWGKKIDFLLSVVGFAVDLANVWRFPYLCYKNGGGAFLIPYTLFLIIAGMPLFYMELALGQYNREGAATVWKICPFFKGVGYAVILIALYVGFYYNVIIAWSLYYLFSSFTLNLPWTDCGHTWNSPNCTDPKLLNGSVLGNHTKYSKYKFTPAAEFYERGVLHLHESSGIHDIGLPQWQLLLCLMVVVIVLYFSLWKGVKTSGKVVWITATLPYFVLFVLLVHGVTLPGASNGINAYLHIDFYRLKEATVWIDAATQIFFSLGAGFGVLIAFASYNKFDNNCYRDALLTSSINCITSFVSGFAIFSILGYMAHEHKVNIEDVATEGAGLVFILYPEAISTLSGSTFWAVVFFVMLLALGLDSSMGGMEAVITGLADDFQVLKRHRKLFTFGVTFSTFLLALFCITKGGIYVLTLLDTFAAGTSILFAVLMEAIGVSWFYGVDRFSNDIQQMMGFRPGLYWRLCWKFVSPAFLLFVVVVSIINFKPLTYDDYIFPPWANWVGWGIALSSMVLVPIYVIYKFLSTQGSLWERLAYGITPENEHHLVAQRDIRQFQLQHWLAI
T2 sequence (P34981 whole entry): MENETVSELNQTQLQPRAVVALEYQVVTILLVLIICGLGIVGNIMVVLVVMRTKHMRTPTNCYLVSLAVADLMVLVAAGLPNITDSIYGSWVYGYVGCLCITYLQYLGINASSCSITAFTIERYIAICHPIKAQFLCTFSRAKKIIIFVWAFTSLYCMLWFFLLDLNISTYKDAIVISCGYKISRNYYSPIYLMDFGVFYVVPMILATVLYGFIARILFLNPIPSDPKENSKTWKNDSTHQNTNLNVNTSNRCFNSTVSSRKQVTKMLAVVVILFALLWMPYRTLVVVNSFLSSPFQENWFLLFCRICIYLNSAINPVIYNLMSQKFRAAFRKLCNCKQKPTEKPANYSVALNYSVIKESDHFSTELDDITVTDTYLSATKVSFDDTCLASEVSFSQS
T6 sequence (P37288 whole entry): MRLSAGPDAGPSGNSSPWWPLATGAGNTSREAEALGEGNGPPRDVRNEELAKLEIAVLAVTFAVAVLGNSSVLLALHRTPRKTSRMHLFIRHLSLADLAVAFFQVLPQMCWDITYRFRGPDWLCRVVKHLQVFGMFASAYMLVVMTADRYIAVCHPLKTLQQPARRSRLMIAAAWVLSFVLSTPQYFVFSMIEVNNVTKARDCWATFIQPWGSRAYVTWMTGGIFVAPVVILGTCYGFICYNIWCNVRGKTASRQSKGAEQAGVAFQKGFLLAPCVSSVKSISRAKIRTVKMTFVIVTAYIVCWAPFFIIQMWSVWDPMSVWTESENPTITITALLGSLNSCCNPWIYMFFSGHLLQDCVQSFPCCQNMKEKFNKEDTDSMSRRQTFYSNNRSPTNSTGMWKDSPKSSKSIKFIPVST
Chain of PDGFRβ (P09619 33-1106, species assumed): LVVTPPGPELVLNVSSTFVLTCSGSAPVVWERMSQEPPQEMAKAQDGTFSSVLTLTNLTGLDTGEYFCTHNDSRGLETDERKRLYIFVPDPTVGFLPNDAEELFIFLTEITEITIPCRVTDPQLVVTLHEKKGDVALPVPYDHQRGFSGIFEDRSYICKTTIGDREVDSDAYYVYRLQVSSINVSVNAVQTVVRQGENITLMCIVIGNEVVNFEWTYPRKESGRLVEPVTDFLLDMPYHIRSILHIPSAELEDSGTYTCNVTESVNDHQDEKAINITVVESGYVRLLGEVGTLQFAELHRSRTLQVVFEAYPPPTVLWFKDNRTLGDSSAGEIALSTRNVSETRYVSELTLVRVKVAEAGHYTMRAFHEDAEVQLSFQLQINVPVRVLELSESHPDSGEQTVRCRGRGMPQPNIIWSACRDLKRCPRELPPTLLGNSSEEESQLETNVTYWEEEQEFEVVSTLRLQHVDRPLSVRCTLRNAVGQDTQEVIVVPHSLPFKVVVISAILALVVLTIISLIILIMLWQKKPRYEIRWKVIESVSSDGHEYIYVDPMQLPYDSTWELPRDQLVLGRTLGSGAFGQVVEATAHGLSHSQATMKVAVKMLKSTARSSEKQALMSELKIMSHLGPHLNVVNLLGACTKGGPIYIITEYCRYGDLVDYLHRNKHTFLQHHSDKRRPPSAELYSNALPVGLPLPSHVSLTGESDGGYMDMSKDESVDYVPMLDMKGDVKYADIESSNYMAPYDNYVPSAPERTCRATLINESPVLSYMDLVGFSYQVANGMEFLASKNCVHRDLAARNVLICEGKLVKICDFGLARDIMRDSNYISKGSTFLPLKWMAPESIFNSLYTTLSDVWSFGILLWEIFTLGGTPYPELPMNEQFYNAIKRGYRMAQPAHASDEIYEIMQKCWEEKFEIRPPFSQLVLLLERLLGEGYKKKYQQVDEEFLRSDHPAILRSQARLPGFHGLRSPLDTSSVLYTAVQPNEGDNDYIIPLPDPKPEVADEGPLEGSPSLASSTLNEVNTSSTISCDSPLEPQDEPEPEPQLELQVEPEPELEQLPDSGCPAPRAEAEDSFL
T7 sequence (P29317 598-890): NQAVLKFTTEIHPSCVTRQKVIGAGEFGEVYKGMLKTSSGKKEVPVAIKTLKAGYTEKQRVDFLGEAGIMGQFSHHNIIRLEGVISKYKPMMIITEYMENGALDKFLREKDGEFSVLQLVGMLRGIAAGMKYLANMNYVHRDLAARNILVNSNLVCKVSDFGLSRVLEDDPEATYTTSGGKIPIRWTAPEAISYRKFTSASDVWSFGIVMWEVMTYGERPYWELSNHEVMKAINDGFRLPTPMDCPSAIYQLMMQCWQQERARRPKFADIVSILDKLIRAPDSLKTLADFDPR

COc1cc2c(Nc3ccc(Cl)c(Cl)c3F)ncnc2cc1OC[C@@H]1C[C@@H]2CN(C)C[C@@H]2C1 [XL-647, N-(3,4-dichloro-2-fluorophenyl)-7-({[(3aR,5r,6aS)-2-methyloctahydrocyclopenta[c]pyrrol-5-yl]methyl}oxy)-6-(methyloxy)quinazolin-4-amine]
AUC increase in the presence of food [1]: approximately 18% | Cmax increase in the presence of food [1]: about 5% | Inhibition, 10 μM XL-647 [2]: 12.95% | inhibition at 10 µM [3]: -5.38% | inhibition at 10 µM [4]: 4.59% | inhibition at 10 µM (Thromboxane A2 (Human)): 1.51% | Single Dose Duration of Action (100 mg/kg, >50% inhibition) (p-Y-EGFR; A431 xenografts): >72 h | inhibition at 3 mg/kg (p-Y-EGFR; A-431, mouse, 3 mg/kg, dosed 3.5 hours before EGF): 41% | inhibition at 10 mg/kg (p-Y-EGFR; A-431, mouse, 10 mg/kg, dosed 3.5 hours before EGF): 70% | inhibition at 30 mg/kg (p-Y-EGFR; A-431, mouse, 30 mg/kg (plasma 4 μM), dosed 3.5 hours before EGF): 89% | inhibition at 100 mg/kg (p-Y-EGFR; A-431, mouse, 100 mg/kg, dosed 3.5 hours before EGF): 93% | IC50 (p-Y-EGFR; in vivo, A431 xenografts, PO, read-out: Estimated IC50 (plasma concentration)): 720 nM | IC50 (ErbB2 [5]): 16 ± 3 nM | accumulation in plasma (in vivo): < 2 fold | dose proportionality of AUC, in words (in vivo): approximately dose proportionally over lower dose ranges | bioavailability (in vivo; dog, po): 63 to 74% | Tmax (in vivo; mouse, rat, dog, monkey): 4 to 8 h | half-life (in vivo; mouse, rat, dog, monkey): 9.41 to 20.9 h | volumes of distribution (in vivo; mouse, rat, dog, monkey, iv): > 18 L/kg | oral bioavailability, in words (in vivo; po): orally bioavailable in mice, rats and dogs | IC50 (PDGFRβ): > 1200 nM | phosphorylation of EGFR, immunoblot [6]: inhibits phosphorylation of EGFR | IC50 [7]: 2570 nM | Inhibition, 10 μM XL-647 ([7]; 10 μM): 97.91% | IC50 (ErbB2 [8]): 552 nM | inhibition at 10 µM (Vasopressin 1): 32.8% | ED50 [9]: < 3 mg/kg | IC50 (EphA2): 6.8 ± 0.8 nM | fraction unbound (in vitro): 0.04 to 0.09
